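Dose response: 5 concentrations. Exposure: 48 h. Format: 96-well plates. Endpoint: linear interpolation; highest concentration if not reached. At the GI50, growth is halved.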 Calls of active or inactive are those of the source. Rule as the data show it: active = GI50 up to about 1.1 µM and inactive = higher.
Key:
Experiment in all cases: inhibition of tumour cell growth, NCI panel, 48 h
NCI-H522 = tested on: NCI-H522
MOLT-4 = tested on: MOLT-4
HOP-62 = tested on: HOP-62
SN12C = tested on: SN12C
SR = tested on: SR
SF-268 = tested on: SF-268
LOX IMVI = tested on: LOX IMVI
A549 = tested on: A549
NCI-H460 = tested on: NCI-H460
M14 = tested on: M14
CCRF-CEM = tested on: CCRF-CEM
NCI-H23 = tested on: NCI-H23
UACC-257 = tested on: UACC-257
SNB-19 = tested on: SNB-19
SK-MEL-28 = tested on: SK-MEL-28
DMS-114 = tested on: DMS-114
KM12 = tested on: KM12
U-251 = tested on: U-251
M19-MEL = tested on: M19-MEL
SF-539 = tested on: SF-539
A498 = tested on: A498
OVCAR-5 = tested on: OVCAR-5
KM-20L2 = tested on: KM-20L2
DLD-1 = tested on: DLD-1
RXF 631 = tested on: RXF 631
HL-60 = tested on: HL-60
ACHN = tested on: ACHN
SK-MEL-2 = tested on: SK-MEL-2
HCT-116 = tested on: HCT-116
RPMI-8226 = tested on: RPMI-8226
SF-295 = tested on: SF-295
SK-MEL-5 = tested on: SK-MEL-5
Malme-3M = tested on: Malme-3M
UO-31 = tested on: UO-31
OVCAR-8 = tested on: OVCAR-8
K562 = tested on: K562
CAKI-1 = tested on: CAKI-1
786-0 = tested on: 786-0
EKVX = tested on: EKVX
RXF 393 = tested on: RXF 393
IGROV-1 = tested on: IGROV-1
HCT-15 = tested on: HCT-15
SNB-78 = tested on: SNB-78
NCI-H226 = tested on: NCI-H226
XF498 = tested on: XF498
COLO 205 = tested on: COLO 205
OVCAR-3 = tested on: OVCAR-3
HOP-92 = tested on: HOP-92
UACC-62 = tested on: UACC-62
TK-10 = tested on: TK-10
LXFL 529 = tested on: LXFL 529
SNB-75 = tested on: SNB-75
SK-OV-3 = tested on: SK-OV-3
HT-29 = tested on: HT-29
SW-620 = tested on: SW-620
HOP-18 = tested on: HOP-18
OVCAR-4 = tested on: OVCAR-4
DMS-273 = tested on: DMS-273

Measured: GI50

CN(C)CCONC(=O)C12CC3CC(CC(C3)C1)C2
> 100 µM: HCT-15
inactive: NCI-H522 > 100 µM | MOLT-4 > 100 µM | HOP-62 > 100 µM | SN12C > 100 µM | SR > 100 µM | SF-268 > 100 µM | LOX IMVI > 100 µM | A549 > 100 µM | NCI-H460 > 100 µM | M14 > 100 µM | CCRF-CEM > 100 µM | NCI-H23 > 100 µM | UACC-257 > 100 µM | SNB-19 > 100 µM | SK-MEL-28 > 100 µM | DMS-114 > 100 µM | KM12 > 100 µM | U-251 > 100 µM | M19-MEL > 100 µM | SF-539 > 100 µM | A498 > 100 µM | OVCAR-5 > 100 µM | KM-20L2 > 100 µM | DLD-1 > 100 µM | RXF 631 > 100 µM | HL-60 > 100 µM | ACHN > 100 µM | SK-MEL-2 > 100 µM | HCT-116 > 100 µM | RPMI-8226 > 100 µM | SF-295 > 100 µM | SK-MEL-5 > 100 µM | UO-31 > 100 µM | OVCAR-8 > 100 µM | K562 > 100 µM | CAKI-1 > 100 µM | 786-0 > 100 µM | EKVX > 100 µM | RXF 393 > 100 µM | IGROV-1 > 100 µM | SNB-78 26.2 µM | NCI-H226 > 100 µM | XF498 > 100 µM | COLO 205 > 100 µM | OVCAR-3 > 100 µM | HOP-92 > 100 µM | UACC-62 > 100 µM | TK-10 > 100 µM | LXFL 529 > 100 µM | SNB-75 > 100 µM | SK-OV-3 > 100 µM | HT-29 > 100 µM
active: Malme-3M 0.02 µM

O=C(O)C1=CCCc2ccc3ccccc3c21
inactive: SW-620 > 100 µM | NCI-H522 > 100 µM | MOLT-4 > 100 µM | HOP-18 21.6 µM | SN12C > 100 µM | SF-268 > 100 µM | LOX IMVI > 100 µM | OVCAR-4 > 100 µM | A549 > 100 µM | NCI-H460 > 100 µM | M14 > 100 µM | CCRF-CEM > 10 µM | NCI-H23 > 100 µM | UACC-257 > 100 µM | SNB-19 > 100 µM | DMS-273 > 100 µM | SK-MEL-28 > 100 µM | DMS-114 > 100 µM | KM12 > 100 µM | U-251 > 100 µM | M19-MEL > 100 µM | SF-539 > 100 µM | A498 > 100 µM | OVCAR-5 > 100 µM | KM-20L2 > 100 µM | RXF 631 > 100 µM | ACHN > 100 µM | SK-MEL-2 > 100 µM | HCT-116 > 100 µM | RPMI-8226 > 100 µM | SF-295 > 100 µM | Malme-3M > 100 µM | UO-31 > 100 µM | OVCAR-8 > 100 µM | K562 > 100 µM | 786-0 > 100 µM | EKVX > 100 µM | RXF 393 > 100 µM | IGROV-1 > 100 µM | SNB-78 > 100 µM | NCI-H226 > 100 µM | XF498 > 100 µM | COLO 205 > 100 µM | OVCAR-3 > 100 µM | HOP-92 > 100 µM | UACC-62 > 100 µM | TK-10 > 100 µM | LXFL 529 > 100 µM | SNB-75 85.3 µM | SK-OV-3 > 100 µM | HT-29 > 100 µM
> 100 µM: HCT-15
